Measured values published in paper PMC9977302, “Medium-chain fatty acids suppress lipotoxicity-induced hepatic fibrosis via the immunomodulating receptor GPR84” (JCI Insight, 2023).
Like-named read-outs stand apart in the source and are kept apart here.

Target: GPR84 (Mus musculus, UniProt Q8CIM5)
Assay: cAMP inhibition assay in Dox-inducible mouse GPR84 HEK293 cells, with Dox-uninduced controls
Type: cell-based

GPR84, sequence (Q8CIM5 whole entry): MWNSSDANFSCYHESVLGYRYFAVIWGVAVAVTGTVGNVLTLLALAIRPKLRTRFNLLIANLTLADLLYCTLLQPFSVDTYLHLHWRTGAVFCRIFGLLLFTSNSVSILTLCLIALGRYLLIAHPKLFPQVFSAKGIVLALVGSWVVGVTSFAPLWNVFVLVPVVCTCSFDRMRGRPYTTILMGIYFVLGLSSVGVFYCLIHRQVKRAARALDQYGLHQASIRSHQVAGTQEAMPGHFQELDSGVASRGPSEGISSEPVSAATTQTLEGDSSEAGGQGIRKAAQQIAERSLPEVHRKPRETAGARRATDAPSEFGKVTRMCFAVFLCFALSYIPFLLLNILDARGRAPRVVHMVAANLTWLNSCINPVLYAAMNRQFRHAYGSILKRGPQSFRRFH

| SMILES | EC50 [µM] | EC50 (read-out: EC50) [µM] |
| --- | --- | --- |
| CCCCCCCCCC(=O)O [C10:0, capric acid] | 3.5 |  |
| CCCCCCCCCCCC(=O)O [C12:0] |  | 4.4 |
